Results as given in patent US8785457B2 (Cellzome Limited, priority 2009, dated 2014).

Legend:
[1] = biological target: T1, DNA-dependent protein kinase (DNA-PK) (Homo sapiens, UniProt P78527); experiment: kinobeads assay, DNA-PK; type: binding; conditions: kinobeads assay, Table 6; read-out: Inhibition values (IC50) DNAPK
T1 construct: endogenous in cells; host or cells: Jurkat, clone E6-1 (ATCC TIB-152) cell lysate
Procedure, shortened: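 Competitive binding in Jurkat cell lysate (5 mg/ml total protein): test compounds at various concentrations competed with beads bearing immobilized phenylmorpholin-chromen ligand. Bead-bound kinases were eluted and quantified by antibody dot blot with infrared detection; IC50 values came from dose-response curves.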

[2] = tested on: S6RP serine-240/244 phosphorylation; experiment: In vitro Phospho-S6 cellular assay (pS6RP S240/244) in HEK293T/17 cells; type: cell-based; conditions: Homo sapiens, 2 hours, read-out: pS6 IC50
Procedure, shortened: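 Compounds were tested at eight concentrations on adhered HEK293T/17 cells for 2 h at 37 °C (2% FCS, 0.1% DMSO), at 80,000 cells/well for pAkt S473 and 40,000 for pS6RP S240/244. Lysates were captured on phospho-specific antibody MSD plates with Sulfo-Tag detection. Values came from nonlinear variable-slope regression.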

T1 sequence (P78527 whole entry): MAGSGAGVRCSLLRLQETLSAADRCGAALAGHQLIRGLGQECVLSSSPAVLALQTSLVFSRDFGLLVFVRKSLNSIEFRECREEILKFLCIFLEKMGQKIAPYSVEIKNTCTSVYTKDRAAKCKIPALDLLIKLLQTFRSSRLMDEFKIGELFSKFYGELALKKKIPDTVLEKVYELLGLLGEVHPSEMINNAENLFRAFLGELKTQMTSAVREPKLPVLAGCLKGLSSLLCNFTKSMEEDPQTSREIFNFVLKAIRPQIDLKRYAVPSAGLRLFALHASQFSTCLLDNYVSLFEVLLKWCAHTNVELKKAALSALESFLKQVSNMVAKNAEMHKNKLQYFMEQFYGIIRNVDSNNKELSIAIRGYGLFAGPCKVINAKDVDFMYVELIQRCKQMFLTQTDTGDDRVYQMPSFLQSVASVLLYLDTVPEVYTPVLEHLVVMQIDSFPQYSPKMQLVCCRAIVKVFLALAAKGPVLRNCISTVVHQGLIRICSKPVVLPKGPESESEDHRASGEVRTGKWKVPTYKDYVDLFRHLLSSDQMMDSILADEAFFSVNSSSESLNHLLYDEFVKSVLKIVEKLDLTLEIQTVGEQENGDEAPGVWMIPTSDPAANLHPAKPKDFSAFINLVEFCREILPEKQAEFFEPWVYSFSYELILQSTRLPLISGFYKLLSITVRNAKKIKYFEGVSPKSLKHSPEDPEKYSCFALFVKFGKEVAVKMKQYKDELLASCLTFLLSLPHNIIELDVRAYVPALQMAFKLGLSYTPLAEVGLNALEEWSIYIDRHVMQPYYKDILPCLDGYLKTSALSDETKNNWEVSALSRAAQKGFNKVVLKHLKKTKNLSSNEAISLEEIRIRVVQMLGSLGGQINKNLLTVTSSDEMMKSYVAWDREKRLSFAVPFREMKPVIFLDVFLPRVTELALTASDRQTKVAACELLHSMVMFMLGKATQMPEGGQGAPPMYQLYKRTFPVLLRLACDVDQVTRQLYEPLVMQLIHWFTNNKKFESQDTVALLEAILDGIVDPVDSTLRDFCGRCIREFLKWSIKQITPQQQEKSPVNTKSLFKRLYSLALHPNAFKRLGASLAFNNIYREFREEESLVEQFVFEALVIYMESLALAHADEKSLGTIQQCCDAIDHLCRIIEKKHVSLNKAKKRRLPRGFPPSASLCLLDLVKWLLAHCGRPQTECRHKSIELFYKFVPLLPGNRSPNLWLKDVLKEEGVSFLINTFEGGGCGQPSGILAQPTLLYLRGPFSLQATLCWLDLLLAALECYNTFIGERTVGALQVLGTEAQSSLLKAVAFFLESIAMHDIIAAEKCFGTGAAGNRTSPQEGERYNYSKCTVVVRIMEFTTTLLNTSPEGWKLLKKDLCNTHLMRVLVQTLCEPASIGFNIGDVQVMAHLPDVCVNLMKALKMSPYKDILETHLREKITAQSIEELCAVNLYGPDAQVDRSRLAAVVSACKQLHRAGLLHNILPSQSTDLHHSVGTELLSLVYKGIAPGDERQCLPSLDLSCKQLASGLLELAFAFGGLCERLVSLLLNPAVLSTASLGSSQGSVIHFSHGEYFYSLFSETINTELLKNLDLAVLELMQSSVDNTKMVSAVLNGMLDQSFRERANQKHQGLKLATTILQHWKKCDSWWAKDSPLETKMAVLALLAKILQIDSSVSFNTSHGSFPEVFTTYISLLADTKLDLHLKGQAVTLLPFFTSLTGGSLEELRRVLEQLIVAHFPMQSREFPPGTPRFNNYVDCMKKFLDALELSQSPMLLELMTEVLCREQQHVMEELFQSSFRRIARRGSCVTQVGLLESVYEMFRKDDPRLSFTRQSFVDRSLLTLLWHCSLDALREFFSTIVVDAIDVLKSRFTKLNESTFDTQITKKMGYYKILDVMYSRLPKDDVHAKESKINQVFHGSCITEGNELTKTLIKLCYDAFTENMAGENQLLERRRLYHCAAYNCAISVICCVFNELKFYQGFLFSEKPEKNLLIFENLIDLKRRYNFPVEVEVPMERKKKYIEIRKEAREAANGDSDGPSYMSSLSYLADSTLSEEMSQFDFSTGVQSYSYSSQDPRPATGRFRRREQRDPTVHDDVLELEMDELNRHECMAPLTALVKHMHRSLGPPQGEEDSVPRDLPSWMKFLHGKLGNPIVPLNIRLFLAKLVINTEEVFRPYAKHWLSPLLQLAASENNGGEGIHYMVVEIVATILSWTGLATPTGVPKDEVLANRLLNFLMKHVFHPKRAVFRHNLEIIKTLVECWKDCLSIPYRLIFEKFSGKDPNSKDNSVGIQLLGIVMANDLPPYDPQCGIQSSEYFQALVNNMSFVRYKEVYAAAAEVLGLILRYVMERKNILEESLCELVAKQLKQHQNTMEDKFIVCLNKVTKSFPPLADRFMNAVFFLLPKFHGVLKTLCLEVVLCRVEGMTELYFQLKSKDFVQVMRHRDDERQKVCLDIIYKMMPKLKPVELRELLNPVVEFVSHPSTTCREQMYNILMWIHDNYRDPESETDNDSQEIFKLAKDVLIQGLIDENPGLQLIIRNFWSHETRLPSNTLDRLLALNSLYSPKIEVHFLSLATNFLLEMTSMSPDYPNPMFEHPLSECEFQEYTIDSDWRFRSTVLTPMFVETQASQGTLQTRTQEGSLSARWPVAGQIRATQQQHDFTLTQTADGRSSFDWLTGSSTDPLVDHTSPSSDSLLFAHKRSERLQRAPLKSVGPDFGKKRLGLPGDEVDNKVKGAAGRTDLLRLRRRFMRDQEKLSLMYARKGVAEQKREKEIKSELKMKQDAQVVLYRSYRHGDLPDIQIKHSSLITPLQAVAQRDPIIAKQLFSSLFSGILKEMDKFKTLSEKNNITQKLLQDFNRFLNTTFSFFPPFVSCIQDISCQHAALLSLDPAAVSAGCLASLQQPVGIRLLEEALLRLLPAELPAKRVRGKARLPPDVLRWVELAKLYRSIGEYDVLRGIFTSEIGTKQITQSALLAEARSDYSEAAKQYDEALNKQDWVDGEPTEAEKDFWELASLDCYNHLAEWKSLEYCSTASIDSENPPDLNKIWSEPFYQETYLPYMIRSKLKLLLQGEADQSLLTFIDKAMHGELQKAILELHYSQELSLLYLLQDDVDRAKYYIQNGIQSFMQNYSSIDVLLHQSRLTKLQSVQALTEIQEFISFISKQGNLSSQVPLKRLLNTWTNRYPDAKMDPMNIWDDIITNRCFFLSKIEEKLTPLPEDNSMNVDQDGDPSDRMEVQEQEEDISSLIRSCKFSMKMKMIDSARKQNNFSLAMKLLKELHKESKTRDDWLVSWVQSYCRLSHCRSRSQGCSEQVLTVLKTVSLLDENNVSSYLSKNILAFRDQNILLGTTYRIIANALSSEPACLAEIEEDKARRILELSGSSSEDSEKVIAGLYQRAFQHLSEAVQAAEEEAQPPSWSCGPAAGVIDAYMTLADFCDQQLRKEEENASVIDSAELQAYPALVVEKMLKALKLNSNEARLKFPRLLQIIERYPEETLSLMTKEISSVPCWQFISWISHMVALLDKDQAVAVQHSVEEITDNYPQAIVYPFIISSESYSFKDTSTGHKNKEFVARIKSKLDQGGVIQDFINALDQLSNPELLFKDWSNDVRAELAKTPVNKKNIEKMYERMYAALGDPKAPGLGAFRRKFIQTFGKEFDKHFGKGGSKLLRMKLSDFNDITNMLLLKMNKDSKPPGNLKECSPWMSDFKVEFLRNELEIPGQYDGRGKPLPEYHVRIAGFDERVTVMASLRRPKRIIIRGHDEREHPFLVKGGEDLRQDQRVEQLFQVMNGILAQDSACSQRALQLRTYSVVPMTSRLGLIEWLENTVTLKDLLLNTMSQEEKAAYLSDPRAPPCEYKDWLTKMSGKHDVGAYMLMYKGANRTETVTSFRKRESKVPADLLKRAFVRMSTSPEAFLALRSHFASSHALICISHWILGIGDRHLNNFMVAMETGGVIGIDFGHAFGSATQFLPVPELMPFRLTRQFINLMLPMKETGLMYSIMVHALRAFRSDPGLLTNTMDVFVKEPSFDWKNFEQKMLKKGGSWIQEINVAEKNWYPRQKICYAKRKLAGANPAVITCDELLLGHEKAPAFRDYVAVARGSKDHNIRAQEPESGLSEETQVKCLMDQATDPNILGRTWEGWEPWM

| IC50 [1] [nM] | IC50 [2] [nM] | Structure (SMILES) |
| --- | --- | --- |
| > 10000 | 33 | CCOC(=O)N1Cc2nc(-c3ccc(NC(=O)Nc4ccncc4)cc3)nc(N3CCOC[C@@H]3C)c2C1 [Example 121, (S)-ethyl 4-(3-methylmorpholino)-2-(4-(3-(pyridin-4-yl)ureido)phenyl)-5H-pyrrolo[3,4-d]pyrimidine-6(7H)-carboxylate] |
| > 10000 | 175 | CCNC(=O)Nc1ccc(-c2nc3c(c(N4CCOC[C@@H]4C)n2)CN(C2CCN(C(=O)OC)CC2)C3)cc1F [Example 122, (S)-methyl 4-(2-(4-(3-ethylureido)-3-fluorophenyl)-4-(3-methylmorpholino)-5H-pyrrolo[3,4-d]pyrimidin-6(7H)-yl)piperidine-1-carboxylate] |
| > 10000 | 99 | CCOC(=O)N1Cc2nc(-c3ccc(NC(=O)NC4CC4)cc3F)nc(N3CCOC[C@@H]3C)c2C1 [Example 131, (S)-ethyl 2-(4-(3-cyclopropylureido)-2-fluorophenyl)-4-(3-methylmorpholino)-5H-pyrrolo[3,4-d]pyrimidine-6(7H)-carboxylate] |
